Experimental data: patent US7589080B2, “β-cyclodextrin compositions, and use to prevent transmission of sexually transmitted diseases” (priority 2000, dated 2009)

How the values were obtained:
HIV = conditions: inhibition of sphingolipid synthesis; cited from earlier work
vaginal epithelium = experiment: Vaginal epithelial toxicity (ethidium bromide homodimer-1 staining); type: in vivo, CF-1 mice; conditions: 1% (w/v), intravaginal, 15 min
Method: CF-1 mice were pretreated with 2.5 mg progestin; one week later, three groups of three mice each were inoculated with 50 Tl of either PBS, 1% (w/v) nonoxynol-9, or 3% (w/v) 2-OH-βCD (20 mM). Each test solution also contained the membrane-impermeant DNA binding fluorescent dye, ethidium bromide homodimer-1 (20 TM, Molecular Probes; Eugene Oreg.; Hyytinen et al., supra, 1994). Fifteen min following exposure to the test agents the mice were euthanized, the vaginas were dissected and opened longitudinally, and viewed using a fluorescent microscope and TRITC filter set.
To examine the effect of a βCD on the vaginal epithelium, CF-1 mice were pretreated with progesterone and one week later were inoculated with 50 Tl of either phosphate buffered saline (PBS), 1% (w/v) nonoxynol-9, or 3% (w/v) 2-OH-βCD (20 mM) containing the membrane impermeant DNA binding fluorescent dye, ethidium bromide homodimer-1. The vaginas of the mice were viewed by fluorescent microscopy.

| Compound | Reduction of HIV infection of CD4+ human cells (HIV) | Damage to vaginal epithelium (vaginal epithelium) |
| --- | --- | --- |
| CCCCCCCCCCCCCCCC(=O)NC(CN1CCOCC1)C(O)c1ccccc1 (centres unmarked) [PPMP, 1-phenyl-2-hexadecanoylamino-3-morpholino-1-propanol] | 50% |  |
| nonoxynol-9 |  | considerable epithelial damage |
